Data taken from publication PMC11402852, “Genotoxicity of selected cannabinoids in human lymphoblastoid TK6 cells” (Archives of Toxicology, 2024).
Like-named read-outs stand apart in the source and are kept apart here.

How the values were obtained:
[1] = set-up: method as in Peters et al. [2022]; settings: after consuming medical cannabis oil, ref Peters et al. [2022], cited from earlier work
TK6 cells [2] = assay: Cell cycle analysis (flow cytometry, DAPI); type: cell-based, human
Protocol: The cells were treated with CBG 30 µM, CBD 15 µM, CBC 15 µM, CBDV 40 µM, and CBN 15 µM for 6 or 24 h. The positive control was vincristine sulphate in a concentration of 0.0121 µM for 6 h of exposure and 0.0061 µM for 24 h. The solvent control was DMSO. Furthermore, experiments with the addition of S9 mix were performed with CBDV. In these experiments, cells were treated with CBDV (40 µM) with or without 0.25% S9 mix for 6 h. DMSO with or without the S9 mix was used as control, and the positive control was the same as mentioned above. After the treatment, cells were collected, washed twice with phosphate buffered saline (PBS) and fixed with 70% ethanol for 30 min on ice. Following each described step above, cells were centrifuged at 1000 rpm, 5 min, and 4 °C. Lastly, cells were resuspended in 1% bovine serum albumin (BSA) in PBS solution and stained with DAPI in a final concentration of 1 µg/mL for 30 min on ice. The cell distribution in different cell cycle phases was analyzed with MACSQuant® Analyzer 16 Flow Cytometer using a 450/50 nm filter and MACSQuantify™ Software 2.13 (Miltenyi Biotec, Bergisch Gladbach, Germany). For each sample, 20 000 events were analyzed. Four independent experiments were performed for 6 h of treatment without metabolic activation. Three independent experiments were done for 24 h of treatment without metabolic activation and 6 h of treatment with metabolic activation.

[3] = tested on: human lymphoblastoid TK6 cells; assay: Cytokinesis-block micronucleus (CBMN) assay; settings: for BMDL (10th percentile): 10th percentile of BMD50 estimation; for BMDL (10th percentile) / BMDU (90th percentile) / Number of micronuclei with S9 mix vs without: 4 h; for BMDL (10th percentile) / BMDU (90th percentile): micronucleus data; for 4 h BMD50: 50% increased relative genotoxicity vs controls, from micronucleus data, without S9, Bayesian BMD analysis; for 4 h BMD50 / Micronucleus induction: 4 h treatment; for BMDU (90th percentile): 90th percentile of BMD50 estimation; for Number of micronuclei with S9 mix vs without: CBG 30 µM, CBD 15 µM, CBC 15 µM, CBDV 40 µM, CBN 15 µM, 0.25% S9 mix; for Micronucleus induction: without metabolic activation, at least one concentration, vs solvent control
TK6 cells [4] = assay: Tubulin visualization; type: cell-based, human; settings: 6 h; CBG 30 µM, CBD 15 µM, CBC 15 µM, CBN 15 µM; visually compared to control, not quantified
Protocol: For tubulin visualization, cells were treated with CBG 30 µM, CBD 15 µM, CBC 15 µM, CBDV 40 µM, and CBN 15 µM. The positive control was vincristine sulphate 0.0121 µM, and the solvent control was DMSO. Cells were treated for 6 h and then harvested. Slides were prepared with cytospin centrifugation. The cells were fixed in ice-cold methanol for 2 h. Following fixation, cells were permeabilized with 0.1% Tween20 in 1 × phosphate-buffered saline (PBS) for 5 min. Next, the anti-α-tubulin antibody was applied in 1:50 dilution. Antibody was diluted with 5% FCS in 1 × PBS. The antibody was incubated in a humid chamber at 4 °C for 24 h. Afterwards, the antibody was removed by washing slides twice with 0.5% Tween20 in 1 × PBS for 5 min. Nuclei were counterstained with Hoechst 33,258 (5 µg/mL, 3 min). The visualization was performed with a Keyence BZ-X800 microscope.

[5] = tested on: human lymphoblastoid TK6 cells; assay: Kinetochore analysis of micronuclei; type: cell-based; settings: 4 h; for Kinetochore (+) MNi, %: of 200 micronuclei, CBG 30 µM, CBD 15 µM, CBC 15 µM, CBDV 40 µM, CBN 15 µM, MMS 40 µM, vincristine 0.0121 µM, one experiment
Protocol: For kinetochore analysis, cells were treated for 4 h with CBG 30 µM, CBD 15 µM, CBC 15 µM, CBDV 40 µM, and CBN 15 µM. The positive controls were MMS 40 µM, and vincristine sulphate 0.0121 µM; the solvent control was DMSO. After 4 h of treatment, the culture medium was renewed, and cells were exposed for 24 h to the cytokinesis inhibitor cytochalasin B (3 μg/mL). Then, cells were harvested, and slides were prepared with cytospin centrifugation. The cells were fixed in ice-cold methanol for 2 h. Kinetochores were stained overnight with undiluted primary anti-centromere antibody at 37 °C followed by 1:20 diluted FITC-conjugated secondary antibody at 37 °C for 2 h. Nuclei were counterstained with Hoechst 33,258 (5 µg/mL, 3 min). The experiment was performed one time. Per compound, 200 micronuclei were evaluated for kinetochore signal presence (Fig. 3). The evaluation was performed with a Keyence BZ-X800 microscope. The slides used in kinetochore evaluation were also evaluated for the number of induced micronuclei as described in the above paragraph cytokinesis‑block micronucleus assay.

[6] = tested on: adult neural stem/progenitor cells; set-up: method as in Lourenço et al. ([2023]); settings: 7 days of exposure; phase not indicated; ref Lourenço et al. ([2023]); cited from earlier work
[7] = tested on: human buccal cell line TR146; set-up: method as in Russo et al. ([2019]); settings: TR146, after 3 and 24 h; ref Russo et al. ([2019]); cited from earlier work
[8] = tested on: human lymphoblastoid TK6 cells; settings: for 4 h BMD50 / BMDL (10th percentile) / BMDU (90th percentile): human, 4 h
[9] = set-up: method as in Hurley et al. ([2022]); settings: epilepsy treatment in children, ref Hurley et al. ([2022]), cited from earlier work
[10] = frequent Cannabis smokers, inhalation, ref Newmeyer et al. [2016], cited from earlier work; for Cmax: read-out: Mean maximum concentration (Cmax) in blood
[11] = tested on: human mesothelioma, cholangiocellular carcinoma and ovarian carcinoma cell lines; set-up: method as in earlier work; settings: 24 h of treatment; correlates with decrease of cell percentage in S phase; ref Viereckl et al. [2022]; Colvin et al. [2022]; Sooda et al. [2023]; cited from earlier work
[12] = set-up: method as in Zhong et al. [2023]; settings: depending on the cell line; downregulating CDK1, CDK2 and cyclin E; ref Zhong et al. [2023]; cited from earlier work
TK6 cells [13] = assay: Mitotic disturbance assay; type: cell-based, human; settings: 6 h, without S9; CBG 30 µM, CBD 15 µM, CBC 15 µM, CBDV 40 µM, CBN 15 µM; vs solvent control
Protocol: The cells were treated for 6 h with CBG 30 µM, CBD 15 µM, CBC 15 µM, CBDV 40 µM, and CBN 15 µM. The positive control was vincristine sulphate 0.0121 µM, and the solvent control was DMSO. For the experiments with or without the S9 mix (final concentration 0.25%), TK6 cells were treated with either CBDV 40 µM or vincristine sulphate 10 ng/mL for 6 h. DMSO with or without S9 mix was used as control. Further procedure was as described for micronucleus experiments, except with direct harvest after cannabinoid treatment without the incubation period with cytochalasin B. Two slides were evaluated with a Nikon Eclipse 55i fluorescent microscope for each experimental condition. The independent experiments were conducted three times.
The cells were counted in categories apoptosis, interphase, prophase, metaphase, anaphase-telophase, disturbed metaphase, and disturbed anaphase-telophase in 1000 cells. The mitotic index was calculated as a sum of the number of cells in prophase, metaphase, anaphase-telophase, disturbed metaphase, and disturbed anaphase-telophase in 1000 cells. Disturbed metaphase and disturbed anaphase-telophase were defined as deviating from the usual appearance of mitoses. Disturbed mitoses were assessed in 100 mitotic cells per slide.

[14] = 6 h, without S9, CBG 30 µM, CBD 15 µM, CBC 15 µM, CBDV 40 µM, CBN 15 µM
[15] = treatment – control (basal level of micronuclei subtracted), same concentrations

Row | Structure (SMILES) | Cell cycle distribution, 6 h (TK6 cells [2]; [14]) | BMDL (10th percentile) [3] [µM] | 4 h BMD50 [3] [µM] | BMDU (90th percentile) [3] [µM] | Number of micronuclei with S9 mix vs without [3] | Micronucleus induction [3] | Multipolar and monopolar tubulin aggregation (TK6 cells [4]) | Kinetochore (+) MNi, % [5] [%] | Kinetochore (+) induced MNi [5, 15] [%] | Micronucleus induction [8] | Number of micronuclei with S9 mix vs without [8] | 4 h BMD50 [8] [µM] | BMDL (10th percentile) [8] [µM] | BMDU (90th percentile) [8] [µM] | Kinetochore (+) induced MNi ([5]; human) [%] | Cmax [10] [nM] | also measured
1 | CCCCCc1cc(O)c2c(c1)OC(C)(CCC=C(C)C)C=C2 (centres unmarked) [CBC, cannabichromene] | no significant changes in the normal cell cycle distribution | 2.5 | 9.8 | 34.5 | reduced as well, but not significantly | significant induction of micronuclei | observed more frequently | 48.5 | 69.7 |  |  |  |  |  |  |  | Mean Cmax concentration in plasma [1]: 6.6 ng/mL; Cmax ([1]; read-out: Mean Cmax concentration in plasma): 21 nM; Cell cycle distribution (time not given) (TK6 cells [2]; TK6, CBC 15 µM, CBN 15 µM, 6 or 24 h): did not observe a change in cell cycle distribution
2 | C=C(C)[C@@H]1CCC(C)=C[C@H]1c1c(O)cc(CCC)cc1O [CBDV, cannabidivarin] |  |  |  |  |  |  |  |  |  | induced micronuclei only after metabolic activation | significant rise in micronuclei frequency | 15.3 | 1.4 | 102.9 | 69.8 |  | Cell cycle effect [6]: induced cell cycle arrest; DNA damage (comet assay) [7]: had the same effect on the cells as CBD; Cell cycle distribution, 6 h (TK6 cells [2]; human, 6 h, 40 µM): slight non-significant rise in cell percentage in the G1 phase; Cell cycle distribution, absence or presence of metabolic enzymes (TK6 cells [2]; human, 6 h, 40 µM): cell accumulation in the G1 phase; Mean plasma Cmax [9]: 7.4 ng/mL; Cmax ([9]; read-out: Mean plasma Cmax): 25.8 nM
3 | CCCCCc1cc(O)c(C/C=C(\C)CCC=C(C)C)c(O)c1 [CBG, cannabigerol] |  |  |  |  |  |  |  |  |  | significant induction of micronuclei | significant reduction in the number of micronuclei | 20.5 | 3.9 | 64.1 | 61.5 | 21.8 | Mean maximum concentration (Cmax) in blood [10]: 6.9 ng/mL; Cell cycle effect [11]: arresting cells in the G0/G1 phase
4 | CCCCCc1cc(O)c2c(c1)OC(C)(C)c1ccc(C)cc1-2 [CBN, cannabinol] | no significant changes in the normal cell cycle distribution | 2.7 | 8.4 | 16.9 | significant reduction in the number of micronuclei | significant induction of micronuclei | observed more frequently | 46 | 63.3 |  |  |  |  |  |  | 37.4 | Cell cycle effect [12]: cell cycle arrest in either the G0/G1 phase or S phase; Mitotic index (TK6 cells [13]): significantly decreased the mitotic index
5 | COS(C)(=O)=O [MMS, methyl methane sulfonate, reference compound] |  |  |  |  |  |  |  | 38 | 41.9 |  |  |  |  |  |  |  | 
